These results are taken from patent publication US8962660B2 (Bristol-Myers Squibb Company, priority 2013, dated 2015).

One experiment concerns the target T1, human GPR120 (Homo sapiens, UniProt Q5NUL3).
T1 construct: expressed in transfected cells; host or cells: CHOA12 cells
T1 sequence (Q5NUL3 1-361): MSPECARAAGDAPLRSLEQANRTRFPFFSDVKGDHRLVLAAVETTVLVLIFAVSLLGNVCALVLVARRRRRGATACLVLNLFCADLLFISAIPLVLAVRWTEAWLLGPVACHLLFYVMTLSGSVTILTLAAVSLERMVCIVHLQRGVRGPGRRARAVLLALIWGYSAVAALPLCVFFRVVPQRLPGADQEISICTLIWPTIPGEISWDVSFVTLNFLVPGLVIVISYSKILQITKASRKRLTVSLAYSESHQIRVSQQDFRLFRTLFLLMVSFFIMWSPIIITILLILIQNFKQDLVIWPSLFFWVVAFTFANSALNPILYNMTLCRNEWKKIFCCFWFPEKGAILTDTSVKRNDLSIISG
Briefly: GPR120 pERK AlphaScreen SureFire assay (human). The format is cell-based. Conditions: CHO cells stably transfected with short form of human GPR120. Put shortly:
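CHOA12 cells stably expressing short-form human GPR120, serum-starved 2 h, were stimulated 7 min at 37 °C with compound (33.33 μM–0.56 nM, 11-point). pERK read by AlphaScreen SureFire; activation normalized to 50 μM linolenic acid and DMSO blank, EC50 by 4-parameter fit.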
For orientation: Alpha assays give light when donor and acceptor beads are brought close together.

The subject of another experiment is C57BL/6 mice. Put plainly: Acute oral glucose tolerance test. Conditions: oral glucose tolerance test in mice, dose of 30 mg/kg, AUC t=0-120 min vs vehicle. The format is in vivo. As to the method:
1) Acute Oral Glucose Tolerance Test
C57BL/6 mice were housed individually and fed a standard rodent chow diet. At approximately 11 weeks age, after a 5 h fast, these mice were orally treated with vehicle or test compounds 60 min before a glucose challenge (2 g/kg). Blood glucose levels were determined from tail bleeds taken at −60, 0, 15, 30, 60 and 120 min after the glucose challenge. The blood glucose excursion profile from t=0-120 min was used to calculate an area under the curve (AUC) for compound treatment. This AUC for compound treatment is compared to vehicle treatment.
In an oral glucose tolerance test in mice at dose of 30 mg/kg, Examples 6, 14 and 80 reduced glucose AUC levels by 40%, 30% and 60% respectively.

Molecule `Cc1ccc(Oc2cc(F)cc(C34CCC(CCOCC(=O)O)(CC3)CO4)c2)cc1F` [Example 80, 2-(2-(1-(3-fluoro-5-(3-fluoro-4-methylphenoxy)phenyl)-2-oxabicyclo [2.2.2]octan-4-yl)ethoxy) acetic acid] yielded an EC50 at human GPR120 of 220 nM. Further, in the experiment on C57BL/6 mice, the “reduced glucose AUC levels” value is given as 60%.

Consider `O=C(O)[C@H]1C[C@@H]1CCC12CCC(c3cccc(Oc4ccccc4)c3)(CC1)OC2` (single isomer, unassigned) [Example 14], for which the EC50 at human GPR120 amounted to 350 nM. Also, the “reduced glucose AUC levels” value with C57BL/6 mice is listed as 30%.

Molecule `O=C(O)COCCC12CCC(c3cccc(Oc4ccccc4)c3)(CC1)OC2` [Example 6, 2-(2-(1-(3-Phenoxyphenyl)-2-oxabicyclo[2.2.2]octan-4-yl)ethoxy)acetic acid] showed a 50% effective concentration (EC50) on human GPR120 of 560 nM. Moreover, in the experiment with C57BL/6 mice, the “reduced glucose AUC levels” value was 40%.

Molecule `O=C(CCCCC12CCC(c3cccc(Oc4ccccc4)c3)(CC1)OC2)NS(=O)(=O)c1ccccc1` [Example 25, 5-(1-(3-Phenoxyphenyl)-2-oxabicyclo[2.2.2]octan-4-yl)-N-(phenylsulfonyl)pentanamide] registered an EC50 at human GPR120 of 590 nM.

On human GPR120, `O=C(O)CCS(=O)(=O)CC12CCC(c3cccc(Oc4ccccc4)c3)(CC1)OC2` [Example 29, 3-((1-(3-Phenoxyphenyl)-2-oxabicyclo[2.2.2]octan-4-yl)methylsulfonyl)propanoic acid] had an EC50 of 1570 nM.

In turn, `O=C(O)/C=C/CCC12CCC(c3cccc(Oc4ccccc4)c3)(CC1)OC2` [Example 11, (E)-5-(1-(3-Phenoxyphenyl)-2-oxabicyclo[2.2.2]octan-4-yl)pent-2-enoic acid] had an EC50 at human GPR120 of 100 nM.

In the case of `O=C(O)COCCC12CCC(c3ccc(F)c(Oc4ccccc4)c3)(CC1)OC2` [Example 87, 2-(2-(1-(4-fluoro-3-phenoxyphenyl)-2-oxabicyclo[2.2.2]octan-4-yl)ethoxy)acetic acid], the concentration giving a half-maximal response (EC50) at human GPR120 came to 410 nM.

With `O=C(O)[C@@H]1C[C@H]1CCC12CCC(c3cccc(Oc4ccccc4)c3)(CC1)OC2` (single isomer, unassigned) [Example 15], it took 480 nM to reach a half-maximal effect at human GPR120 (EC50). The EC50 values of the last two molecules are within 1.5-fold of each other.

A word on the EC50: it is the concentration that produces a half-maximal response.
